Key:
[1] = system: C4-2 xenografts; assay: C4-2 xenograft in eugonadal mice; format: in vivo; settings: C4-2 xenograft tumors
Description: (§1) Total RNA was extracted with GenElute Mammalian Total RNA miniprep kit (Sigma-Aldrich), and 1 μg RNA was reverse-transcribed to complementary DNA (cDNA) with the iScript cDNA Synthesis Kit (Bio-Rad). An ABI 7500 Real-Time PCR instrument (Applied Biosystems) was used to perform quantitative PCR (qPCR) analysis, using iTaq Fast SYBR Green Supermix with ROX (Bio-Rad) in 96-well plates at a final reaction volume of 10 μl. The qPCR analysis was carried out in triplicate with the following primer sets:
(§2) All mouse studies were performed under a protocol approved by the Institutional Animal Care and Use Committee of the Cleveland Clinic Lerner Research Institute. […]
(§3) To evaluate whether zanubrutinib suppresses tumor growth, 6 million C4-2 or 10 million VCaP cells (100 μl in 50% Matrigel and 50% growth media) were subcutaneously injected into mice. […] Tumor volume and progression-free survival were determined as described above. […] The number of mice in each group was determined by those that survived surgical procedures and had reached the 200 mm^3 tumor volume required to initiate treatment. Tumor diameters were measured by digital calipers three times per week and fresh frozen upon mouse sacrifice.
(§4) Androgens in xenografts were assessed by liquid chromatography tandem mass spectrometry as reported previously with slight modifications (Li et al., 2021; Zhu et al., 2018). […]

[2] = system: VCaP xenografts; assay: VCaP xenograft in eugonadal mice; format: in vivo; settings: VCaP xenograft tumors
Description: as §1, §2, §3, §4

C=CC(=O)N1CCC([C@@H]2CCNc3c(C(N)=O)c(-c4ccc(Oc5ccccc5)cc4)nn32)CC1 [zanubrutinib, Zanubrutinib]
no significant effect: tumor testosterone by mass spectrometry [1] | AR target gene expression ([1]; qPCR) | tumor testosterone by mass spectrometry [2] | AR target gene expression ([2]; qPCR)
